Experimental data: patent US10723701B2, “Quinolyl-substituted carboxylic acid compound or pharmaceutically acceptable salt thereof, pharmaceutical composition of the same, and use of the same” (BEIJING KONRUNS PHARMACEUTICAL CO., LTD., priority 2016, dated 2020)

What was measured:
[1] = target: T1, VEGFR2 (Homo sapiens, UniProt P35968); experiment: Radioactive protein kinase assay (33PanQinase Activity Assay), VEGFR2; settings: ATP 1.0 μM (Km), substrate Poly(Glu, Tyr) 4:1, 30° C., 60 minutes; read-out: Biochemical IC50 (nM) VEGFR2
T1 construct: purchased ProQinase GmbH
Procedure: (§1) Biochemical inhibitory activity against AXL and VEGFR2 kinases: the biochemical IC50 values of the compound according to the present application for inhibiting AXL and VEGFR2 kinases were measured by ProQinase GmbH Company (Breisacher Str. 117, D-79106 Freiburg, Germany, www.proqinase.com). The specific steps are described as follows:
(§2) Firstly, the compound according to the present application was dissolved in dimethyl sulfoxide (DMSO) to prepare a stock solution of 1×10^−3 M. 10 different concentrations (from […] to 3×10^−10 M) were prepared by the serial semi-logarithmic dilution.
(§3) The biochemical activities of AXL and VEGFR2 were determined by the radioactive protein kinase assay (33PanQinase® Activity Assay). The assay was performed using a FlashPlates™ 96-well plate manufactured by Perkin Elmer (Boston, Mass., USA) with a reaction volume of 50 μL. The reaction mixture was added by a dropper in the following four steps:
(§4) (1) 20 μL of buffer solution (standard buffer);
(§5) (2) 5 μL of an aqueous solution of ATP;
(§6) (3) 5 μL of the compound (10% DMSO solution);
(§7) (4) 10 μL of a substrate/10 μL of a solution of the kinase.
(§8) The solution to be measured contains HEPES-NaOH (70 mM, pH=7.5), MgCl2 (3 mM), MnCl2 (3 mM), Na-orthovanadate (3 μM), DTT (1.2 mM), PEG20000 (50 μg/mL), ATP (in a concentration that is same as Km of the kinase and varies depending on different kinases), [γ-^33P]-ATP (about 4×10^5 cpm/well), kinase and substrate.
(§9) The reaction was carried out at 30° C. for 60 minutes, and 50 μL of 2% (v/v) phosphoric acid was added to terminate the reaction. The reaction mixture in each well was aspirated and washed twice with 200 μL of 0.9% (w/v) NaCl solution. The amount of the incorporation of ^33P was determined by using a microplate scintillation counter.

[2] = target: T2, AXL (Homo sapiens, UniProt P30530); experiment: Radioactive protein kinase assay (33PanQinase Activity Assay), AXL; settings: ATP 0.3 μM (Km), substrate Poly(Glu, Tyr) 4:1, 30° C., 60 minutes; read-out: Biochemical IC50 (nM) AXL
T2 construct: purchased ProQinase GmbH
T2 sequence (P30530 26-894): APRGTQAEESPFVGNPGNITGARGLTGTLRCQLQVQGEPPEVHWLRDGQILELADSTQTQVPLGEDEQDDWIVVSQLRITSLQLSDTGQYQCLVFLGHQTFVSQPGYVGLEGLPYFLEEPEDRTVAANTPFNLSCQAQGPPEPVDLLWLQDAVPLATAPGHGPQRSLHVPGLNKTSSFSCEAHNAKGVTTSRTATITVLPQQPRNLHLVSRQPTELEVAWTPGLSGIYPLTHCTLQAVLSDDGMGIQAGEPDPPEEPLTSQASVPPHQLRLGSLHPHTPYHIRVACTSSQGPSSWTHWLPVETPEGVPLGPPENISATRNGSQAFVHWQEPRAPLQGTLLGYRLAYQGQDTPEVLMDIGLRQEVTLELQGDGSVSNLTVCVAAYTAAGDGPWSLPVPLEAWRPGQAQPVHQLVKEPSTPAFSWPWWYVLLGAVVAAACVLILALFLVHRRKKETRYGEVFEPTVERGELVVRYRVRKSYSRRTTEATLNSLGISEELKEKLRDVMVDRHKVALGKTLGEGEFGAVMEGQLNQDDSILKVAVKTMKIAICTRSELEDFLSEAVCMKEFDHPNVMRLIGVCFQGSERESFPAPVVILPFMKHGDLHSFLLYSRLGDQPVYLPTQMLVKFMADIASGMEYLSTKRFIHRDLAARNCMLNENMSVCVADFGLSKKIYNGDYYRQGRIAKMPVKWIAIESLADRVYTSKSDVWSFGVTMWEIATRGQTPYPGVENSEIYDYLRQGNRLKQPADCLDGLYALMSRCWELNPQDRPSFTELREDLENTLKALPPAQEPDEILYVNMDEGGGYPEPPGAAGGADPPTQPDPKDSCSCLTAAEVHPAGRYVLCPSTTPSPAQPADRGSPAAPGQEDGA
Procedure: as §1, §2, §3, §4, §5, §6, §7, §8, §9

T1 sequence (P35968 20-1356): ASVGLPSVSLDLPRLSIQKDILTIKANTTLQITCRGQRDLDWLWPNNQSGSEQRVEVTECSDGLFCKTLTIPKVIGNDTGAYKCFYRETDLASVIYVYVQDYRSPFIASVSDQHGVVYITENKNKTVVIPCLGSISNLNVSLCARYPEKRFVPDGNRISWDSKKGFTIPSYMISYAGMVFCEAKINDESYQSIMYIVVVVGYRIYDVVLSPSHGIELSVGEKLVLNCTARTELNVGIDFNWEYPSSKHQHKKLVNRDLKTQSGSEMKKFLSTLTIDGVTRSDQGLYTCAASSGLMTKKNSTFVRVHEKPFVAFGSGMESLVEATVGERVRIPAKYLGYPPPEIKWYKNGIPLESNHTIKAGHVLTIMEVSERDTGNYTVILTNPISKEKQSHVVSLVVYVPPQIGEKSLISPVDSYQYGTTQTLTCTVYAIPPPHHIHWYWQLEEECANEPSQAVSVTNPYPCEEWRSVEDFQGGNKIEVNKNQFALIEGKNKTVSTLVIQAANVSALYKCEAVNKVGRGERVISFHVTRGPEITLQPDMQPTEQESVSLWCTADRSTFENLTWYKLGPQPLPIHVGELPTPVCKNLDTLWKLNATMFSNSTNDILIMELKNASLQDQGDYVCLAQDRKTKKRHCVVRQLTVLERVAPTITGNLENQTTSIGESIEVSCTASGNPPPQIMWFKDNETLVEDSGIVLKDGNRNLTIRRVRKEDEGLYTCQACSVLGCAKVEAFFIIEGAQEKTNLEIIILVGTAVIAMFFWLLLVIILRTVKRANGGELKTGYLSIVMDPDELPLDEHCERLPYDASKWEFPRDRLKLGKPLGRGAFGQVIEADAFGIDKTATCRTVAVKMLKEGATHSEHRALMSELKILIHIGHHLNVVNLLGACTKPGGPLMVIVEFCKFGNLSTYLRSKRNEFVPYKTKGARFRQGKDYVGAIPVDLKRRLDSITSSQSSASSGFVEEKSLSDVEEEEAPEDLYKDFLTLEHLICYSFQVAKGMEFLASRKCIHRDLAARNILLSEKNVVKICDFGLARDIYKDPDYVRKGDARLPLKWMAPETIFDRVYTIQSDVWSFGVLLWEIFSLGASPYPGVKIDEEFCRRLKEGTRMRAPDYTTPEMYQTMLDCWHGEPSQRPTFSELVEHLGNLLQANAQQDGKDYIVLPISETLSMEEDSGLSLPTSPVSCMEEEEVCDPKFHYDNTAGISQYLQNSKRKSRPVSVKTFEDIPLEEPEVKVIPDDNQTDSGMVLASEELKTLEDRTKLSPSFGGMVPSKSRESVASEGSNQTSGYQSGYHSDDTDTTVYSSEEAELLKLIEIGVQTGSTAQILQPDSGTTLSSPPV

Row | SMILES | IC50 [1] [nM] | IC50 [2] [nM]
1 | COc1cc2c(Oc3ccc(NC(=O)C4(C(=O)Nc5ccc(F)cc5)CC4)cc3F)ccnc2cc1OCCCCCC(=O)O [Example 10, Sodium 6-[[4-[2-fluoro-4-[[1-[(4-fluorophenyl)carbamoyl]cyclopropanecarbonyl]amino]phenoxy]-6-methoxy-7-quinolyl]oxy]caproate] | 13.9 | 11.9
2 | COc1cc2c(Oc3ccc(NC(=O)C4(C(=O)Nc5ccc(F)cc5)CC4)cc3F)ccnc2cc1OCCCCCCC(=O)O [Example 14, 7-[[4-[2-fluoro-4-[[1-[(4-fluorophenyl)carbamoyl]cyclopropanecarbonyl]amino]phenoxy]-6-methoxy-7-quinolyl]oxy]heptanoic acid] | 13.6 | 13.7
3 | COc1cc2c(Oc3ccc(NC(=O)C4(C(=O)Nc5cccc(Cl)c5)CC4)cc3F)ccnc2cc1OCCCCCCC(=O)O [Example 16, Calcium 7-[[4-[2-fluoro-4-[[1-[(3-chlorophenyl)carbamoyl]cyclopropanecarbonyl]amino]phenoxy]-6-methoxy-7-quinolyl]oxy]heptanoate] | 18.9 | 19.8
4 | COc1cc2c(Oc3ccc(NC(=O)C4(C(=O)Nc5ccc(F)cc5)CC4)cc3F)ccnc2cc1OCCCCCC(=O)O [Example 9, 6-[[4-[2-fluoro-4-[[1-[(4-fluorophenyl)carbamoyl]cyclopropanecarbonyl]amino]phenoxy]-6-methoxy-7-quinolyl]oxy]caproic acid] | 16 | 10.2
5 | COc1cc2c(Oc3ccc(NC(=O)C4(C(=O)Nc5ccc(F)cc5)CC4)cc3F)ccnc2cc1OCC(=O)O [Example 1, 2-[[4-[2-fluoro-4-[[1-[(4-fluorophenyl)carbamoyl]cyclopropanecarbonyl]amino]phenoxy]-6-methoxy-7-quinolyl]oxy]acetic acid] | 24.5 | 55.3

More lines, now with the values ahead:

Row | IC50 [1] [nM] | IC50 [2] [nM] | SMILES
6 | 6.56 | 9.86 | COc1cc2c(Oc3ccc(NC(=O)C4(C(=O)Nc5ccc(F)cc5)CC4)cc3F)ccnc2cc1OCCCC(=O)O [Example 3, 4-[[4-[2-fluoro-4-[[1-[(4-fluorophenyl)carbamoyl]cyclopropanecarbonyl]amino]phenoxy]-6-methoxy-7-quinolyl]oxy]butyric acid]
7 | 6.6 | 7.49 | COc1cc2c(Oc3ccc(NC(=O)C4(C(=O)Nc5ccc(F)cc5)CC4)cc3F)ccnc2cc1OCCCCC(=O)O [Example 6, 5-[[4-[2-fluoro-4-[[1-[(4-fluorophenyl)carbamoyl]cyclopropanecarbonyl]amino]phenoxy]-6-methoxy-7-quinolyl]oxy]valeric acid]
8 | 8.66 | 6.08 | COc1cc2c(Oc3ccc(NC(=O)C4(C(=O)Nc5ccc(F)cc5)CC4)cc3F)ccnc2cc1OCCCCC(=O)O [Example 8, Triethylammonium 5-[[4-[2-fluoro-4-[[1-[(4-fluorophenyl)carbamoyl]cyclopropanecarbonyl]amino]phenoxy]-6-methoxy-7-quinolyl]oxy]valerate]
9 | 13.6 | 14.9 | COc1cc2c(Oc3ccc(NC(=O)C4(C(=O)Nc5ccc(F)cc5)CC4)cc3F)ccnc2cc1OCCCCCC(=O)O [Example 11, Potassium 6-[[4-[2-fluoro-4-[[1-[(4-fluorophenyl)carbamoyl]cyclopropanecarbonyl]amino]phenoxy]-6-methoxy-7-quinolyl]oxy]caproate]
10 | 12.6 | 8.63 | COc1cc2c(Oc3ccc(NC(=O)C4(C(=O)Nc5ccc(F)cc5)CC4)cc3F)ccnc2cc1OCCCCCC(=O)O [Example 13, 1,3-dihydroxy-2-(hydroxymethyl)propan-2-ammonium 6-[[4-[2-fluoro-4-[[1-[(4-fluorophenyl)carbamoyl]cyclopropanecarbonyl]amino]phenoxy]-6-methoxy-7-quinolyl]oxy]caproate]
11 | 10.4 | 10.7 | COc1cc2c(Oc3ccc(NC(=O)C4(C(=O)Nc5ccc(F)cc5)CC4)cc3F)ccnc2cc1OCCCCCC(=O)O [Example 12, Calcium 6-[[4-[2-fluoro-4-[[1-[(4-fluorophenyl)carbamoyl]cyclopropanecarbonyl]amino]phenoxy]-6-methoxy-7-quinolyl]oxy]caproate (1:1)]
12 | 9.86 | 10.7 | CCOc1cc2c(Oc3ccc(NC(=O)C4(C(=O)Nc5ccc(F)cc5)CC4)cc3F)ccnc2cc1OCC(=O)O [Example 18, Potassium 2-[[4-[2-fluoro-4-[[1-[(4-fluorophenyl)carbamoyl]cyclopropanecarbonyl]amino]phenoxy]-6-ethoxy-7-quinolyl]oxy]acetate]
13 | 8.03 | 9.05 | COc1cc2c(Oc3ccc(NC(=O)C4(C(=O)Nc5ccc(F)cc5)CC4)cc3F)ccnc2cc1OCCCC(=O)O [Example 4, Sodium 4-[[4-[2-fluoro-4-[[1-[(4-fluorophenyl)carbamoyl]cyclopropanecarbonyl]amino]phenoxy]-6-methoxy-7-quinolyl]oxy]butyrate]
